Source: patent publication US8741906B2 (priority 2011, dated 2014)
Read-outs that look alike come from different tables or passages of the source.

Columns and labels:
human CB2 receptors = target: T1, human CB2 receptors (Homo sapiens, UniProt P34972); assay: functional cAMP assay, human CB2; format: cell-based; details: CHO cells expressing human CB2, cAMP; read-out: human CB2 EC50
T1 construct: expressed in transfected cells; host or cells: CHO cells
Summary of the method: (§1)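 Compound exposure lasted 30 min at 30 °C in IBMX (1 mM)-containing Krebs Ringer bicarbonate buffer, applied to human CB1- or CB2-expressing CHO cells. Lysates were read by time-resolved FRET cAMP detection, converted via cAMP standard curve (10 μM–0.13 nM), and EC50 values calculated.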

human CB1 receptors = target: T2, human CB1 receptors (Homo sapiens, UniProt P21554); assay: functional cAMP assay, human CB1; format: cell-based
T2 construct: expressed in transfected cells; host or cells: CHO cells
Summary of the method: as §1

[1] = CHO cells expressing human CB1, cAMP, read-out: human CB1 EC50

T1 sequence (P34972 whole entry): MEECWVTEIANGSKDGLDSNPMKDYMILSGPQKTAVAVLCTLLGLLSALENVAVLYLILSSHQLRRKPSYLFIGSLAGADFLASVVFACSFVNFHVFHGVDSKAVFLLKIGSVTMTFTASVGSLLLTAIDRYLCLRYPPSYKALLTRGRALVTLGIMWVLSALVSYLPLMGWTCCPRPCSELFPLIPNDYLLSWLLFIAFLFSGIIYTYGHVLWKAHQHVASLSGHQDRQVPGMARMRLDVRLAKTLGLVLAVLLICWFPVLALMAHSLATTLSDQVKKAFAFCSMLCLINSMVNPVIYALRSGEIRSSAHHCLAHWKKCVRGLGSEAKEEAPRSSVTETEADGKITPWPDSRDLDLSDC
T2 sequence (P21554 whole entry): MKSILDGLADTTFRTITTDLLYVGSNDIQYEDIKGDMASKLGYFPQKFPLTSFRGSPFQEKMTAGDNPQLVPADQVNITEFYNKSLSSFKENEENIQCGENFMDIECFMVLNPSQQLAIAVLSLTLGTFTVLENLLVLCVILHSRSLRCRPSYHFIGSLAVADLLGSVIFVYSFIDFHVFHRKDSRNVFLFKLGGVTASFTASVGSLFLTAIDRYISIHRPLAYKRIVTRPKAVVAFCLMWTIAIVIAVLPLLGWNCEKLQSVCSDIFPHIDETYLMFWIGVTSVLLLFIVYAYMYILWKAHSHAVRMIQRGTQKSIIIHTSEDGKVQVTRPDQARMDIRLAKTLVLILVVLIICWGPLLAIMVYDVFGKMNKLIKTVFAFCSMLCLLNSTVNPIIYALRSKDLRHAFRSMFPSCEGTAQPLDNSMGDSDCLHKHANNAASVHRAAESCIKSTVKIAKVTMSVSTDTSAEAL

For Cn1ncnc1Cn1nnc2c(N3CC[C@H](O)C3)nc(C(C)(C)C)nc21 [Example 152, (S)-1-[5-tert-Butyl-3-(2-methyl-2H-[1,2,4]triazol-3-ylmethyl)-3H-[1,2,3]triazolo[4,5-d]pyrimidin-7-yl]-pyrrolidin-3-ol], which EC50 (human CB2 receptors) is on record?
The EC50 was 10.5 nM.

And the EC50 (human CB1 receptors; [1])?
The EC50 was greater than 10000 nM.

What does the source list for Cc1nnc(Cn2nnc3c(N4CC[C@H](O)C4)nc(C(C)(C)C)nc32)n1C [Example 153, (S)-1-[5-tert-Butyl-3-(4,5-dimethyl-4H-[1,2,4]triazol-3-ylmethyl)-3H-[1,2,3]triazolo[4,5-d]pyrimidin-7-yl]-pyrrolidin-3-ol]?
EC50 (human CB2 receptors): 11.9 nM; EC50 (human CB1 receptors; [1]): > 10000 nM

How did the EC50 (human CB2 receptors) turn out when Cn1nncc1Cn1nnc2c(N3CC[C@H](O)C3)nc(C(C)(C)C)nc21 [Example 154, (S)-1-[5-tert-Butyl-3-(3-methyl-3H-[1,2,3]triazol-4-ylmethyl)-3H-[1,2,3]triazolo[4,5-d]pyrimidin-7-yl]-pyrrolidin-3-ol] was run?
The EC50 was 2.5 nM.

And the EC50 (human CB1 receptors; [1])?
The EC50 was greater than 10000 nM.

How did the EC50 (human CB2 receptors) turn out when Cc1cc(Cn2nnc3c(N4CC[C@H](O)C4)nc(C(C)(C)C)nc32)n(C)n1 [Example 155, (S)-1-[5-tert-Butyl-3-(2,5-dimethyl-2H-pyrazol-3-ylmethyl)-3H-[1,2,3]triazolo[4,5-d]pyrimidin-7-yl]-pyrrolidin-3-ol] was run?
Its EC50 is 3 nM.

And the EC50 (human CB1 receptors; [1])?
The EC50 was greater than 10000 nM.

How did the EC50 (human CB2 receptors) turn out when CC(C)(C)c1nc(N2CCC(F)(F)C2)c2nnn(Cc3nc(C(F)(F)F)no3)c2n1 [Example 156, 5-tert-Butyl-7-(3,3-difluoro-pyrrolidin-1-yl)-3-(3-trifluoromethyl-[1,2,4]oxadiazol-5-ylmethyl)-3H-[1,2,3]triazolo[4,5-d]pyrimidine] was run?
The EC50 was 5.6 nM.

And the EC50 (human CB1 receptors; [1])?
The EC50 was greater than 10000 nM.

CC(C)(C)c1nc(N2CCC(F)(F)C2)c2nnn(Cc3nnnn3C3CC3)c2n1 [Example 157, 5-tert-Butyl-3-(1-cyclopropyl-1H-tetrazol-5-ylmethyl)-7-(3,3-difluoro-pyrrolidin-1-yl)-3H-[1,2,3]triazolo[4,5-d]pyrimidine] was tested. Which EC50 (human CB2 receptors) did it give?
Its EC50 is 0.1 nM.

And the EC50 (human CB1 receptors; [1])?
The EC50 was greater than 10000 nM.

CC(C)(C)c1nc(N2CC[C@H](O)C2)c2nnn(Cc3cccnc3Nc3ccc([N+](=O)[O-])c4nonc34)c2n1 [Example 158, (S)-1-{5-tert-Butyl-3-[2-(7-nitro-benzo[1,2,5]oxadiazol-4-ylamino)-pyridin-3-ylmethyl]-3H-[1,2,3]triazolo[4,5-d]pyrimidin-7-yl}-pyrrolidin-3-ol] was tested. Which EC50 (human CB2 receptors) did it give?
The EC50 was 254 nM.

And the EC50 (human CB1 receptors)?
Its EC50 is greater than 10000 nM.

What does the source list for COc1ccc(Cn2nnc3c(N4CC[C@H](O)[C@@H]4CO)nc(C(C)(C)C)nc32)cc1 [Example 159, (2S,3S)-1-[5-tert-Butyl-3-(4-methoxy-benzyl)-3H-[1,2,3]triazolo[4,5-d]pyrimidin-7-yl]-2-hydroxymethyl-pyrrolidin-3-ol]?
EC50 (human CB2 receptors): 35.8 nM; EC50 (human CB1 receptors; [1]): > 10000 nM

What does the source list for CC(C)(C)c1nc(N2CC[C@H](O)C2)c2nnn(Cc3nnnn3C3CC3)c2n1 [Example 160, (S)-1-[5-tert-Butyl-3-(1-cyclopropyl-1H-tetrazol-5-ylmethyl)-3H-[1,2,3]triazolo[4,5-d]pyrimidin-7-yl]-pyrrolidin-3-ol]?
EC50 (human CB2 receptors): 0.7 nM; EC50 (human CB1 receptors; [1]): > 10000 nM

Which EC50 (human CB2 receptors) does the source give for Cc1nc(Cn2nnc3c(N4CC[C@H](O)C4)nc(C(C)(C)C)nc32)n(C)n1 [Example 161, (S)-1-[5-tert-Butyl-3-(2,5-dimethyl-2H-[1,2,4]triazol-3-ylmethyl)-3H-[1,2,3]triazolo[4,5-d]pyrimidin-7-yl]-pyrrolidin-3-ol] here?
The EC50 was 82.5 nM.

And the EC50 (human CB1 receptors; [1])?
The EC50 was greater than 10000 nM.

For Cc1c(Cn2nnc3c(N4CC[C@H](O)C4)nc(C(C)(C)C)nc32)ccc[n+]1[O-] [Example 162, (S)-1-[5-tert-Butyl-3-(2-methyl-1-oxy-pyridin-3-ylmethyl)-3H-[1,2,3]triazolo[4,5-d]pyrimidin-7-yl]-pyrrolidin-3-ol], which EC50 (human CB2 receptors) is on record?
Its EC50 is 27.7 nM.

What about the EC50 (human CB1 receptors; [1]) of the same molecule?
The EC50 was greater than 10000 nM.

With Cc1nc(Cn2nnc3c(N4CCC(F)(F)C4)nc(C(C)(C)C)nc32)n(C)n1 [Example 163, 5-tert-Butyl-7-(3,3-difluoro-pyrrolidin-1-yl)-3-(2,5-dimethyl-2H-[1,2,4]triazol-3-ylmethyl)-3H-[1,2,3]triazolo[4,5-d]pyrimidine] as the molecule, how does the EC50 (human CB2 receptors) read?
Its EC50 is 5.5 nM.

What about the EC50 (human CB1 receptors; [1]) of the same molecule?
Its EC50 is greater than 10000 nM.

For Cc1nonc1Cn1nnc2c(N3CC[C@H](O)[C@@H]3CO)nc(C(C)(C)C)nc21 [Example 164, (2S,3S)-1-[5-tert-Butyl-3-(4-methyl-furazan-3-ylmethyl)-3H-[1,2,3]triazolo[4,5-d]pyrimidin-7-yl]-2-hydroxymethyl-pyrrolidin-3-ol], which EC50 (human CB2 receptors) is on record?
Its EC50 is 0.8 nM.

And the EC50 (human CB1 receptors; [1])?
The EC50 was greater than 10000 nM.

With Cn1nnnc1Cn1nnc2c(N3CC[C@H](O)[C@@H]3CO)nc(C(C)(C)C)nc21 [Example 165, (2S,3S)-1-[5-tert-Butyl-3-(1-methyl-1H-tetrazol-5-ylmethyl)-3H-[1,2,3]triazolo[4,5-d]pyrimidin-7-yl]-2-hydroxymethyl-pyrrolidin-3-ol] as the molecule, how does the EC50 (human CB2 receptors) read?
The EC50 was 53.5 nM.

What about the EC50 (human CB1 receptors; [1]) of the same molecule?
The EC50 was greater than 10000 nM.

What does the source list for CC(C)(C)c1nc(N2CC[C@H](O)[C@@H]2CO)c2nnn(Cc3nnnn3C3CC3)c2n1 [Example 166, (2S,3S)-1-[5-tert-Butyl-3-(1-cyclopropyl-1H-tetrazol-5-ylmethyl)-3H-[1,2,3]triazolo[4,5-d]pyrimidin-7-yl]-2-hydroxymethyl-pyrrolidin-3-ol]?
EC50 (human CB2 receptors): 18 nM; EC50 (human CB1 receptors; [1]): > 10000 nM

CC(C)(C)c1nc(N2CC[C@H](O)[C@@H]2CO)c2nnn(Cc3ncccc3Cl)c2n1 [Example 167, (2S,3S)-1-[5-tert-Butyl-3-(3-chloro-pyridin-2-ylmethyl)-3H-[1,2,3]triazolo[4,5-d]pyrimidin-7-yl]-2-hydroxymethyl-pyrrolidin-3-ol] was tested. Which EC50 (human CB2 receptors) did it give?
Its EC50 is 3.8 nM.

What about the EC50 (human CB1 receptors; [1]) of the same molecule?
Its EC50 is greater than 10000 nM.

For CC(C)(C)c1nc(N2CC[C@H](O)[C@@H]2CO)c2nnn(Cc3ccccc3S(C)(=O)=O)c2n1 [Example 168, (2S,3S)-1-[5-tert-Butyl-3-(2-methanesulfonyl-benzyl)-3H-[1,2,3]triazolo[4,5-d]pyrimidin-7-yl]-2-hydroxymethyl-pyrrolidin-3-ol], which EC50 (human CB2 receptors) is on record?
The EC50 was 9.4 nM.

What about the EC50 (human CB1 receptors; [1]) of the same molecule?
The EC50 was greater than 10000 nM.

Which EC50 (human CB2 receptors) does the source give for Cn1ncnc1Cn1nnc2c(N3CC[C@H](O)[C@@H]3CO)nc(C(C)(C)C)nc21 [Example 169, (2S,3S)-1-[5-tert-Butyl-3-(2-methyl-2H-[1,2,4]triazol-3-ylmethyl)-3H-[1,2,3]triazolo[4,5-d]pyrimidin-7-yl]-2-hydroxymethyl-pyrrolidin-3-ol] here?
Its EC50 is 199 nM.

And the EC50 (human CB1 receptors)?
The EC50 was greater than 10000 nM.

For Cc1nnc(Cn2nnc3c(N4CC[C@H](O)[C@@H]4CO)nc(C(C)(C)C)nc32)n1C [Example 170, (2S,3S)-1-[5-tert-Butyl-3-(4,5-dimethyl-4H-[1,2,4]triazol-3-ylmethyl)-3H-[1,2,3]triazolo[4,5-d]pyrimidin-7-yl]-2-hydroxymethyl-pyrrolidin-3-ol], which EC50 (human CB2 receptors) is on record?
The EC50 was 194 nM.

And the EC50 (human CB1 receptors)?
Its EC50 is greater than 10000 nM.

Which results are given for Cn1nncc1Cn1nnc2c(N3CC[C@H](O)[C@@H]3CO)nc(C(C)(C)C)nc21 [Example 171, (2S,3S)-1-[5-tert-Butyl-3-(3-methyl-3H-[1,2,3]triazol-4-ylmethyl)-3H-[1,2,3]triazolo[4,5-d]pyrimidin-7-yl]-2-hydroxymethyl-pyrrolidin-3-ol]?
EC50 (human CB2 receptors): 54.2 nM; EC50 (human CB1 receptors; [1]): > 10000 nM

How did the EC50 (human CB2 receptors) turn out when CC(C)(C)c1nc(N2CC[C@H](O)[C@@H]2CO)c2nnn(Cc3cccnc3Cl)c2n1 [Example 172, (2S,3S)-1-[5-tert-Butyl-3-(2-chloro-pyridin-3-ylmethyl)-3H-[1,2,3]triazolo[4,5-d]pyrimidin-7-yl]-2-hydroxymethyl-pyrrolidin-3-ol] was run?
The EC50 was 4.1 nM.

What about the EC50 (human CB1 receptors; [1]) of the same molecule?
The EC50 was greater than 10000 nM.

With Cc1nonc1Cn1nnc2c(N3CC(F)(F)C(F)(F)C3)nc(C(C)(C)C)nc21 [Example 173, 5-tert-Butyl-3-(4-methyl-furazan-3-ylmethyl)-7-(3,3,4,4-tetrafluoro-pyrrolidin-1-yl)-3H-[1,2,3]triazolo[4,5-d]pyrimidine] as the molecule, how does the EC50 (human CB2 receptors) read?
Its EC50 is 0.3 nM.

What about the EC50 (human CB1 receptors; [1]) of the same molecule?
Its EC50 is greater than 10000 nM.

Which results are given for Cc1noc(Cn2nnc3c(N4CC(F)(F)C(F)(F)C4)nc(C(C)(C)C)nc32)n1 [Example 174, 5-tert-Butyl-3-(3-methyl-[1,2,4]oxadiazol-5-ylmethyl)-7-(3,3,4,4-tetrafluoro-pyrrolidin-1-yl)-3H-[1,2,3]triazolo[4,5-d]pyrimidine]?
EC50 (human CB2 receptors): 2 nM; EC50 (human CB1 receptors; [1]): > 10000 nM

Cc1nnc(Cn2nnc3c(N4CC(F)(F)C(F)(F)C4)nc(C(C)(C)C)nc32)o1 [Example 175, 5-tert-Butyl-3-(5-methyl-[1,3,4]oxadiazol-2-ylmethyl)-7-(3,3,4,4-tetrafluoro-pyrrolidin-1-yl)-3H-[1,2,3]triazolo[4,5-d]pyrimidine] was tested. Which EC50 (human CB2 receptors) did it give?
Its EC50 is 1.5 nM.

And the EC50 (human CB1 receptors; [1])?
The EC50 was greater than 10000 nM.

With Cn1nnnc1Cn1nnc2c(N3CC(F)(F)C(F)(F)C3)nc(C(C)(C)C)nc21 [Example 176, 5-tert-Butyl-3-(1-methyl-1H-tetrazol-5-ylmethyl)-7-(3,3,4,4-tetrafluoro-pyrrolidin-1-yl)-3H-[1,2,3]triazolo[4,5-d]pyrimidine] as the molecule, how does the EC50 (human CB2 receptors) read?
The EC50 was 0.5 nM.

And the EC50 (human CB1 receptors; [1])?
The EC50 was 2000 nM.

How did the EC50 (human CB2 receptors) turn out when Cc1nnc(Cn2nnc3c(N4CC(F)(F)C(F)(F)C4)nc(C(C)(C)C)nc32)n1C [Example 177, 5-tert-Butyl-3-(4,5-dimethyl-4H-[1,2,4]triazol-3-ylmethyl)-7-(3,3,4,4-tetrafluoro-pyrrolidin-1-yl)-3H-[1,2,3]triazolo[4,5-d]pyrimidine] was run?
Its EC50 is 1.1 nM.

What about the EC50 (human CB1 receptors; [1]) of the same molecule?
Its EC50 is greater than 10000 nM.

Which results are given for Cn1nncc1Cn1nnc2c(N3CC(F)(F)C(F)(F)C3)nc(C(C)(C)C)nc21 [Example 178, 5-tert-Butyl-3-(3-methyl-3H-[1,2,3]triazol-4-ylmethyl)-7-(3,3,4,4-tetrafluoro-pyrrolidin-1-yl)-3H-[1,2,3]triazolo[4,5-d]pyrimidine]?
EC50 (human CB2 receptors): 0.9 nM; EC50 (human CB1 receptors; [1]): 1890 nM

What does the source list for Cc1nonc1Cn1nnc2c(N3CC4(COC4)C3)nc(C(C)(C)C)nc21 [Example 179, 5-tert-Butyl-3-(4-methyl-furazan-3-ylmethyl)-7-(2-oxa-6-aza-spiro[3.3]hept-6-yl)-3H-[1,2,3]triazolo[4,5-d]pyrimidine]?
EC50 (human CB2 receptors): 2 nM; EC50 (human CB1 receptors; [1]): > 10000 nM
